These results are taken from PubChem BioAssay AID588782 (Southern Research Specialized Biocontainment Screening …, 2011).

The assay deals with PC3 cells, HSV G47-delta CPE, CellTiter-Glo, 96 h. In words: augmentation of HSV G47-delta CPE in PC3 cells – cell-based, CellTiter-Glo, secondary, confirmation (AID 588782).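 On CPE increase: percent rise in virus-caused cell damage over infected cultures given no drug.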 The settings on record: for outcome / CPE increase: at 10 µM; for CC50: measured here: PC3 cytotoxicity; for CPE increase: stronger effect = higher value.

“And” between values parts separate entries of the source, which are not always exact repeats. Equal values may be shown once. The source made the active and inactive calls.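 How the source made its calls: active means virus-caused cell damage raised over twofold versus untreated cells in three repeats, without toxicity at overlapping doses; inactive means the rest.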 Where only a bound is given, the exact number is not on record here.

The term CC50 denotes the concentration at which the toxic effect on the cells reaches its halfway point. For `COc1cc(C(=O)OCCCN2CCCN(CCCOC(=O)c3cc(OC)c(OC)c(OC)c3)CC2)cc(OC)c1OC`, the outcome was inactive and the CC50 was > 100 µM.
For `COc1cc(C(=O)OCCCN2CCCN(C(=O)c3ccccc3)CC2)cc(OC)c1OC`, in that order: “inactive” and > 100 µM.
Take `COc1ccc(C(=O)OCCCNCCNCCCOC(=O)c2ccc(OC)cc2)cc1`: the result was inactive; the CPE increase is 19.8% (inactive); the cytotoxic concentration (CC50) was > 93 µM and 21.7 µM.
For the compound `COc1cc(C(=O)OCCN2CCCN(CCOC(=O)c3cc(OC)c(OC)c(OC)c3)CC2)cc(OC)c1OC`, the outcome was inactive and the CC50 is > 100 µM.
Turning to `COc1cc(C(=O)N2CCCN(C(=O)c3cc(OC)c(OC)c(OC)c3)CC2)cc(OC)c1OC`, the outcome was inactive and the CC50 was > 100 µM.
For `COc1cc(NC(=O)Nc2cc(OC)c(OC)c(OC)c2)cc(OC)c1OC`, in that order: “inactive” and > 100 µM.
For `COc1cc(C(=O)OCCCN2CCCN(C(C)=O)CC2)cc(OC)c1OC`, in that order: “inactive” and > 100 µM.
Take `COc1cc(OC)cc(C(=O)OCCCN2CCN(CCCOC(=O)c3cc(OC)cc(OC)c3)CC2)c1`: the result was inactive and the CC50 is > 94 µM.
For `COc1cc(OC)cc(C(=O)OCCCN2CCN(C)CC2)c1`, in that order: “inactive” and > 100 µM.
Regarding `COc1cc(C(=O)OCCCN2CCN(CCCOC(=O)c3cc(OC)c(OC)c(OC)c3)CC2)cc(OC)c1OC`, the result was inactive and the cytotoxic concentration (CC50) was > 100 µM.
For `O=C(CCN1CCCN(CCC(=O)Nc2ccccc2)CC1)Nc1ccccc1`, in that order: “inactive” and > 100 µM.
For the compound `COc1cc(OC)cc(C(=O)OCCCN2CCCN(C)CC2)c1`, the result was inactive and the CC50 is > 100 µM.
For `NCCCN1CCCN(CCCN)CC1`, in that order: “inactive” and > 100 µM.
Regarding `COc1ccc(C(=O)OCCCN2CCN(C)CC2)cc1`, the outcome was inactive and the CC50 was > 100 µM.
For `O=C(OCCCN1CCN(CCCOC(=O)c2ccc(F)cc2)CC1)c1ccc(F)cc1`, in that order: “inactive” and > 100 µM.
As for `COc1cc(NC(=O)N2CCCN(C(=O)Nc3cc(OC)c(OC)c(OC)c3)CC2)cc(OC)c1OC`, the CPE increase was 24.5% (inactive) and the CC50 is > 100 µM.
`CC(=O)NCCCN1CCCN(CCCNC(C)=O)CC1`: the result was inactive and the CC50 was > 100 µM.
For `O=C(/C=C/c1ccc2c(c1)OCO2)N1CCCN(C(=O)/C=C/c2ccc3c(c2)OCO3)CC1`, in that order: “inactive” and > 100 µM.
For `O=C(CNc1ccc(F)cc1)CN1CCCN(CC(=O)Nc2ccc(F)cc2)CC1`, the result was inactive and the 50% cytotoxic concentration (CC50) was > 100 µM.
Regarding `COc1cc(C(=O)OCCCN2CCCN(CCOC(=O)c3cc(OC)c(OC)c(OC)c3)CC2)cc(OC)c1OC`, the outcome was inactive and the 50% cytotoxic concentration (CC50) was > 100 µM.
For `COc1cc(OC)cc(C(=O)OCCN2CCCC2)c1`, in that order: “inactive” and > 100 µM.
As for `COc1cc(OC)cc(C(=O)OCCCN2CCCN(Cc3ccccc3)CC2)c1`, the result was inactive and the CC50 was > 100 µM.
For `COc1cc(C(=O)OCCN2CCCN(C)CC2)cc(OC)c1OC`, the outcome was inactive and the CC50 was > 100 µM.
For `COc1ccc(C(=O)OCCCN2CCCC2)cc1`, in that order: “inactive” and > 100 µM.
On to `COc1cc(C(=O)OCCN2CCCN(Cc3ccccc3)CC2)cc(OC)c1OC`, for which the result was inactive and the 50% cytotoxic concentration (CC50) was > 100 µM.
Regarding `COc1ccc(C(=O)OCCCN2CCCN(C)CC2)cc1`, the outcome was inactive and the cytotoxic concentration (CC50) is > 100 µM.
